From PMC5095062, “The novel choline kinase inhibitor ICL-CCIC-0019 reprograms cellular metabolism and inhibits cancer cell growth” (Oncotarget, 2016)

Key:
Test in all cases: Kinase selectivity screen
Format in all cases: biochemical
BTK = BTK (Homo sapiens, UniProt Q06187)
Protocol: (§1) The substantially less demanding synthesis of ICL-CCIC-0019 compared with MN58B bears additional advantages. […] This consequently diminished intracellular PCho concentration, and importantly, the incorporation of [^3H]-choline into lipids (Figure 1D). […] To assess kinase specificity, ICL-CCIC-0019 was tested against a panel of 131 human kinases (Figure 1E and Supplementary Table S1). […] Inhibition greater than 20% was attained for insulin-like growth factor 1 (IGF-1R, 35 ± 7% inhibition), mitogen-activated protein kinase-activated protein kinase 3 (MAPKAP-K3, 33 ± 6%), extracellular signal regulated kinase 8 (ERK8, 31 ± 4%), ribosomal S6 kinase 1 (RSK1, 22 ± 6%), and v-erb-a erythroblastic leukemia viral oncogene homolog 4 (HER4, 21 ± 7%).

CAMKKb = CAMKKb (Homo sapiens, UniProt Q96RR4)
Protocol: as §1

CHK2 = CHK2 (Homo sapiens, UniProt O96017); conditions: CHK2, 10 μM
Protocol: as §1

CSK = CSK (Homo sapiens, UniProt P41240)
Protocol: as §1

DAPK1 = DAPK1 (Homo sapiens, UniProt P53355); conditions: DAPK1, 10 μM
Protocol: as §1

DDR2 = DDR2 (Homo sapiens, UniProt Q16832); conditions: DDR2, 10 μM
Protocol: as §1

EPH-A4 = EPH-A4 (Homo sapiens, UniProt P54764); conditions: EPH-A4, 10 μM
Chain of EPH-A4 (P54764 20-986): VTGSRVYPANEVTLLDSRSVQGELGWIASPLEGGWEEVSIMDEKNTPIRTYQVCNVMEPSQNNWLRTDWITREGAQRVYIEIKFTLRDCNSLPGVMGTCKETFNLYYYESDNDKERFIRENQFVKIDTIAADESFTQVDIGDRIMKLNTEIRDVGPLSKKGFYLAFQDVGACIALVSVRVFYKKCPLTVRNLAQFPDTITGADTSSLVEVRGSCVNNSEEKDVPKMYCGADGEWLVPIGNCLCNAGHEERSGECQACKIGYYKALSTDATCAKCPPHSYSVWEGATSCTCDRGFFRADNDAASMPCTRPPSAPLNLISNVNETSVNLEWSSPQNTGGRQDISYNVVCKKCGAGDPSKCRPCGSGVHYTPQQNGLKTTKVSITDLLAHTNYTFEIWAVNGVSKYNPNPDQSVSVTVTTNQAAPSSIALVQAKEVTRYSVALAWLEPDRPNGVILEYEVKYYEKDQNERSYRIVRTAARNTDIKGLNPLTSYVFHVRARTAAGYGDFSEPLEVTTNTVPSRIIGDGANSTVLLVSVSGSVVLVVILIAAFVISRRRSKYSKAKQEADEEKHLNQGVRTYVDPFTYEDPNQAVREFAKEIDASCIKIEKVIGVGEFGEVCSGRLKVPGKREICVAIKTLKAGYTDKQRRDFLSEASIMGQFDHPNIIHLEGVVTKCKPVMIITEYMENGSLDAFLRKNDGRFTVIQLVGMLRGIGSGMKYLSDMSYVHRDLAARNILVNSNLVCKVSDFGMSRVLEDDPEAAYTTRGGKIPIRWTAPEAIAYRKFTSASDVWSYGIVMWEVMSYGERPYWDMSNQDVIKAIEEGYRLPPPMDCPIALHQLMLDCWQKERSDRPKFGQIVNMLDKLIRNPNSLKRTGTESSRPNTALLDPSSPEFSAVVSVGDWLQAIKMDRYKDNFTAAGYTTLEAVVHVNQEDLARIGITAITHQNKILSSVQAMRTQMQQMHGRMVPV
Protocol: as §1

EPH-B2 = EPH-B2 (Homo sapiens, UniProt P29323); conditions: EPH-B2, 10 μM
Protocol: as §1

ERK1 = ERK1 (Homo sapiens, UniProt P27361); conditions: ERK1, 10 μM
Protocol: as §1

GCK = GCK (Homo sapiens, UniProt Q12851)
Protocol: as §1

GSK3b = GSK3b (Homo sapiens, UniProt P49841)
Protocol: as §1

HIPK2 = HIPK2 (Homo sapiens, UniProt Q9H2X6); conditions: HIPK2, 10 μM
Protocol: as §1

IGF-1R = IGF-1R (Homo sapiens, UniProt P08069)
Chain of IGF-1R (P08069 31-1367): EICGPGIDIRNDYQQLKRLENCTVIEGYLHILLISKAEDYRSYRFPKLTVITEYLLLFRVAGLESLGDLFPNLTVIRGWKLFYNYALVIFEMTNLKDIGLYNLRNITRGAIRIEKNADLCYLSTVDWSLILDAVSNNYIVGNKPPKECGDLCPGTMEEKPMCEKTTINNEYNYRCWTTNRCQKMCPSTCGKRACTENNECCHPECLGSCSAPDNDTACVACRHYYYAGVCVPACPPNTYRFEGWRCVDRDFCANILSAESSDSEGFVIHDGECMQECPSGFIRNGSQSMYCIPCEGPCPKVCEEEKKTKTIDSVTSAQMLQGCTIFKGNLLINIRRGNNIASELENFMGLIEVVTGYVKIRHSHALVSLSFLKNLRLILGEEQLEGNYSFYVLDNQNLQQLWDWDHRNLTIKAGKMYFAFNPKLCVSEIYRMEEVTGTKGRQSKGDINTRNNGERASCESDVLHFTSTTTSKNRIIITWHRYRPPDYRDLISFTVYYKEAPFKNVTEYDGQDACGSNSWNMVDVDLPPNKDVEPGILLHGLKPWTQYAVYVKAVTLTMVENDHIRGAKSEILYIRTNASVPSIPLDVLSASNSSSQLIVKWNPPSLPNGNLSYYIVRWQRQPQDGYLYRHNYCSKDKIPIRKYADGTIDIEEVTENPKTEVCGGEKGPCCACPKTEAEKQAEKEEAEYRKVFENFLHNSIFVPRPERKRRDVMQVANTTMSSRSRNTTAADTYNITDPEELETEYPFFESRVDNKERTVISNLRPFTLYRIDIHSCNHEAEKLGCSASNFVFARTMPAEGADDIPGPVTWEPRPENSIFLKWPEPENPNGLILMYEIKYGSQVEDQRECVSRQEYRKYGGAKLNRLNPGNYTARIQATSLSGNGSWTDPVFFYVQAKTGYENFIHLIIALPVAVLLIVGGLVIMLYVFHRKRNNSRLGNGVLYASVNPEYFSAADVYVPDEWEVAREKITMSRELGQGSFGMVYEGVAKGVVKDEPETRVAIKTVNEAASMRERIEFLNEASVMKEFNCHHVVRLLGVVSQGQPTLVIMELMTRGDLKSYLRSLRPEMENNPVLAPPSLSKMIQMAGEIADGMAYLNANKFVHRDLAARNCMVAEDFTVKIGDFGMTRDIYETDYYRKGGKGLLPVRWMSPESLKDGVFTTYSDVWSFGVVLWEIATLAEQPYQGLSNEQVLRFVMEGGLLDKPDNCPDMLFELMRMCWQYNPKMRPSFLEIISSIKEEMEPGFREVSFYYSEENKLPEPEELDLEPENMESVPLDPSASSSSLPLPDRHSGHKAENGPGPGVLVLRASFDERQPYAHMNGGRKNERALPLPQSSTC
Protocol: as §1

IKKb = IKKb (Homo sapiens, UniProt O14920)
Protocol: as §1

JNK3 = JNK3 (Homo sapiens, UniProt P53779); conditions: JNK3, 10 μM
Chain of JNK3 (P53779 whole entry): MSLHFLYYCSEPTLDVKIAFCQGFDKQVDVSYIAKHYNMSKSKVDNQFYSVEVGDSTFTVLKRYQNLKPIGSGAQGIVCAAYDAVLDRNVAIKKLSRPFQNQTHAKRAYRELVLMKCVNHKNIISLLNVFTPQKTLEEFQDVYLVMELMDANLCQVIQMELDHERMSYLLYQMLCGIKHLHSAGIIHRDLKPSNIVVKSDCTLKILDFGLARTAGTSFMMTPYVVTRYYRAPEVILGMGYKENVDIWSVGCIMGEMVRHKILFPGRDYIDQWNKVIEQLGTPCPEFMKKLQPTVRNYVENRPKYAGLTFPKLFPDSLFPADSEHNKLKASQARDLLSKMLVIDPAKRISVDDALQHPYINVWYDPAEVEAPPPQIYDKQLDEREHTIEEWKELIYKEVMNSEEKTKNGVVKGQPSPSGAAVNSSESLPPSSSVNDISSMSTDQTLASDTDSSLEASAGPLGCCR
Protocol: as §1

LKB1 = LKB1 (Homo sapiens, UniProt Q15831); conditions: LKB1, 10 μM
Protocol: as §1

MARK1 = MARK1 (Homo sapiens, UniProt Q9P0L2); conditions: MARK1, 10 μM
Protocol: as §1

MARK2 = MARK2 (Homo sapiens, UniProt Q7KZI7); conditions: MARK2, 10 μM
Chain of MARK2 (Q7KZI7 whole entry): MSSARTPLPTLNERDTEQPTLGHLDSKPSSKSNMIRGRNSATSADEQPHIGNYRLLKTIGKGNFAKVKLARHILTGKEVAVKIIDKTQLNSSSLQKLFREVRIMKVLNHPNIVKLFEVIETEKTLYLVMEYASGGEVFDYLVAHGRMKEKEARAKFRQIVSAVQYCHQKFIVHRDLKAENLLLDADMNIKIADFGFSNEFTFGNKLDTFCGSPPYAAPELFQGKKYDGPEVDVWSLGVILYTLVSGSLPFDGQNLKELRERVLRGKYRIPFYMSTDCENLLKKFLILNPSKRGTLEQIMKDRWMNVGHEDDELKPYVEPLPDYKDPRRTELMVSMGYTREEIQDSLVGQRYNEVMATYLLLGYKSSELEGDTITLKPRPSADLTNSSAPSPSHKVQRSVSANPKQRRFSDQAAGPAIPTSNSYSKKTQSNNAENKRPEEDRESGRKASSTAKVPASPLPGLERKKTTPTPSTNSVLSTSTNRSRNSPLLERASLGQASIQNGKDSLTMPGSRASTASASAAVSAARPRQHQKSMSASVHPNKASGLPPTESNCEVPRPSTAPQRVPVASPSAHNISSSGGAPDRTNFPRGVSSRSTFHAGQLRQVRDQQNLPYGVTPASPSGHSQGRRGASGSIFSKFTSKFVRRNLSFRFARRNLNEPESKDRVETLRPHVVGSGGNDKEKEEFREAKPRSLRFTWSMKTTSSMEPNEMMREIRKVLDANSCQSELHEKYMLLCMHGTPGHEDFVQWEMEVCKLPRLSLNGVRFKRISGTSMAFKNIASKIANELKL
Protocol: as §1

MARK3 = MARK3 (Homo sapiens, UniProt P27448); conditions: MARK3, 10 μM
Protocol: as §1

MKK1 = MKK1 (Homo sapiens, UniProt Q02750); conditions: MKK1, 10 μM
Protocol: as §1

MNK1 = MNK1 (Homo sapiens, UniProt Q9BUB5); conditions: MNK1, 10 μM
Protocol: as §1

MNK2 = MNK2 (Homo sapiens, UniProt Q9HBH9); conditions: MNK2, 10 μM
Protocol: as §1

NEK2a = NEK2a (Homo sapiens, UniProt P51955)
Protocol: as §1

OSR1 = OSR1 (Homo sapiens, UniProt O95747); conditions: OSR1, 10 μM
Protocol: as §1

PKCz = PKCz (Homo sapiens, UniProt Q05513)
Protocol: as §1

PKCγ = PKCγ (Homo sapiens, UniProt P05129)
Protocol: as §1

PRAK = PRAK (Homo sapiens, UniProt Q8IW41)
Protocol: as §1

RSK2 = RSK2 (Homo sapiens, UniProt P51812); conditions: RSK2, 10 μM
Protocol: as §1

S6K1 = S6K1 (Homo sapiens, UniProt P23443); conditions: S6K1, 10 μM
Protocol: as §1

SGK1 = SGK1 (Homo sapiens, UniProt O00141); conditions: SGK1, 10 μM
Chain of SGK1 (O00141 whole entry): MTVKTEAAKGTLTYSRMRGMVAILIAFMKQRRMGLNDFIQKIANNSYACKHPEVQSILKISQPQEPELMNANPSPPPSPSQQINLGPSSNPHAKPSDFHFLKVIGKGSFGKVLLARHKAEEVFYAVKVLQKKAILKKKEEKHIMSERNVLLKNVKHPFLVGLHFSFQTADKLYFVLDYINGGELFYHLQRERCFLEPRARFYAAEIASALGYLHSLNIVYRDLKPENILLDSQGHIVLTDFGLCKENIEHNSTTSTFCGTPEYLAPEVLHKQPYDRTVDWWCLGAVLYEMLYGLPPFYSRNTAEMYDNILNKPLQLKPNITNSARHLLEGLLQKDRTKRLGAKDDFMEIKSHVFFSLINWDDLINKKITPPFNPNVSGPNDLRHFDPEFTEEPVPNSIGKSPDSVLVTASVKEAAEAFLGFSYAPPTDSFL
Protocol: as §1

SRPK1 = SRPK1 (Homo sapiens, UniProt Q96SB4); conditions: SRPK1, 10 μM
Protocol: as §1

SmMLCK = SmMLCK (Homo sapiens, UniProt Q15746)
Chain of SmMLCK (Q15746 923-1914): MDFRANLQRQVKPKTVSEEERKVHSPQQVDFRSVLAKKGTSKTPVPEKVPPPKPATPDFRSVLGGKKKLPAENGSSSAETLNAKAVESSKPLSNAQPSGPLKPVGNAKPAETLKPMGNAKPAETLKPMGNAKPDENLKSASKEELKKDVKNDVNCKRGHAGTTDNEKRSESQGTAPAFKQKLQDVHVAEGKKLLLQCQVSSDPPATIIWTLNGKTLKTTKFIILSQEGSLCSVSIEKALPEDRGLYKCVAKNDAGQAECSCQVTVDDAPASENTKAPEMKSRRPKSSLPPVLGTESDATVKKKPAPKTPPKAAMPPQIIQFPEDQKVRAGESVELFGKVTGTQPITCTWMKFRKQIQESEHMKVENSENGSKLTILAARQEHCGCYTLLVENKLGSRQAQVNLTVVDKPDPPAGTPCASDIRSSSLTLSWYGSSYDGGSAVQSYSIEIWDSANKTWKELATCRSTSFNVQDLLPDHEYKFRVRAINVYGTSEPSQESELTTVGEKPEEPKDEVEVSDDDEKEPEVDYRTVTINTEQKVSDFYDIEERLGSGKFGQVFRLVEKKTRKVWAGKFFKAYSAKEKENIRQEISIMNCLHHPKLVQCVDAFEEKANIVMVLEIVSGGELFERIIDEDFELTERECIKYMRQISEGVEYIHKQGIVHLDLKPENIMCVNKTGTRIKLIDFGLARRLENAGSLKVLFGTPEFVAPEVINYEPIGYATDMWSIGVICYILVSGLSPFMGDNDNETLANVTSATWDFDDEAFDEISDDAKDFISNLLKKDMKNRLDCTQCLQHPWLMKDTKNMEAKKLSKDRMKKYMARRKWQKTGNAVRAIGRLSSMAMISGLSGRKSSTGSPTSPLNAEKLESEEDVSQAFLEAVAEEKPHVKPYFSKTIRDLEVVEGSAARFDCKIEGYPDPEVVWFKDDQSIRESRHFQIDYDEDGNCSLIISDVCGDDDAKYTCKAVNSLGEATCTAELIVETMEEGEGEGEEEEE
Protocol: as §1

TAK1-TAB1 = TAK1-TAB1 (Homo sapiens, UniProt O43318); conditions: TAK1-TAB1, 10 μM
Protocol: as §1

TESK1 = TESK1 (Homo sapiens, UniProt Q15569); conditions: TESK1, 10 μM
Protocol: as §1

WNK1 = WNK1 (Homo sapiens, UniProt Q9H4A3); conditions: WNK1, 10 μM
Protocol: as §1

p38g MAPK = p38g MAPK (Homo sapiens, UniProt P53778)
Protocol: as §1

`CN(C)c1cc[n+](CCCCCCCCCCCC[n+]2ccc(N(C)C)cc2)cc1` [ICL-CCIC-0019] was tested, and the remaining activity at 10 µM (BTK) was 131%, the remaining activity at 10 µM (CAMKKb) was 91% and the remaining activity at 10 µM (CHK2) was 90%. For the same compound, the remaining activity at 10 µM (CSK) was 96%, the remaining activity at 10 µM (DAPK1) was 96% and the remaining activity at 10 µM (DDR2) was 85%. For the same compound, the remaining activity at 10 µM (EPH-A4) was 124%, the remaining activity at 10 µM (EPH-B2) was 90% and the remaining activity at 10 µM (ERK1) was 91%. For the same compound, the remaining activity at 10 µM (GCK) was 89%, the remaining activity at 10 µM (GSK3b) was 94% and the remaining activity at 10 µM (HIPK2) was 104%. It also gave an inhibition at 10 µM (IGF-1R) of 35 ± 7%, a remaining activity at 10 µM (IGF-1R) of 65% and a remaining activity at 10 µM (IKKb) of 101%. The remaining activity at 10 µM (JNK3) was 92%, the remaining activity at 10 µM (LKB1) was 100% and the remaining activity at 10 µM (MARK1) was 103%. It also gave a remaining activity at 10 µM (MARK2) of 86%, a remaining activity at 10 µM (MARK3) of 106% and a remaining activity at 10 µM (MKK1) of 82%. It also gave a remaining activity at 10 µM (MNK1) of 101%, a remaining activity at 10 µM (MNK2) of 96% and a remaining activity at 10 µM (NEK2a) of 101%. It also gave a remaining activity at 10 µM (OSR1) of 99%, a remaining activity at 10 µM (PKCz) of 106% and a remaining activity at 10 µM (PKCγ) of 93%. The remaining activity at 10 µM (PRAK) was 101%, the remaining activity at 10 µM (RSK2) was 105% and the remaining activity at 10 µM (S6K1) was 88%. The remaining activity at 10 µM (SGK1) was 94%, the remaining activity at 10 µM (SRPK1) was 106% and the remaining activity at 10 µM (SmMLCK) was 104%. For the same compound, the remaining activity at 10 µM (TAK1-TAB1) was 97%, the remaining activity at 10 µM (TESK1) was 101% and the remaining activity at 10 µM (WNK1) was 102%. The remaining activity at 10 µM (p38g MAPK) was 99%.
